Target: ROCK2 (Homo sapiens, UniProt O75116)
Assay: ROCK2 kinase inhibition assay (Caliper LABCHIP, FITC peptide substrate)
Assay type: biochemical
Details: 5 μM ATP, 1.5 μM peptide substrate; value ranges
Protocol: The effectiveness of compounds of the present invention as ROCK inhibitors can be determined in a 30 μL assay containing 20 mM HEPES, pH 7.5, 20 mM MgCl2, 0.015% Brij-35, 4 mM DTT, 5 μM ATP and 1.5 μM peptide substrate (FITC-AHA-AKRRRLSSLRA-OH). Compounds were dissolved in DMSO so that the final concentration of DMSO was <2%, and the reaction was initiated with Rho kinase variants. After incubation, the reaction was terminated by the addition of EDTA and the phosphorylated and non-phosphorylated peptides separated using a LABCHIP® 3000 Reader (Caliper Life Sciences). […] Compounds were tested in dose-response format, and the inhibition of kinase activity was calculated at each concentration of compound. The inhibition data were fit using a curve-fitting program to determine the IC50; i.e., the concentration of compound required to inhibit 50% of kinase activity.
Representative Examples were tested in the ROCK2 assay described above and found having ROCK inhibitory activity.

Sequence of ROCK2 (O75116 whole entry, species assumed): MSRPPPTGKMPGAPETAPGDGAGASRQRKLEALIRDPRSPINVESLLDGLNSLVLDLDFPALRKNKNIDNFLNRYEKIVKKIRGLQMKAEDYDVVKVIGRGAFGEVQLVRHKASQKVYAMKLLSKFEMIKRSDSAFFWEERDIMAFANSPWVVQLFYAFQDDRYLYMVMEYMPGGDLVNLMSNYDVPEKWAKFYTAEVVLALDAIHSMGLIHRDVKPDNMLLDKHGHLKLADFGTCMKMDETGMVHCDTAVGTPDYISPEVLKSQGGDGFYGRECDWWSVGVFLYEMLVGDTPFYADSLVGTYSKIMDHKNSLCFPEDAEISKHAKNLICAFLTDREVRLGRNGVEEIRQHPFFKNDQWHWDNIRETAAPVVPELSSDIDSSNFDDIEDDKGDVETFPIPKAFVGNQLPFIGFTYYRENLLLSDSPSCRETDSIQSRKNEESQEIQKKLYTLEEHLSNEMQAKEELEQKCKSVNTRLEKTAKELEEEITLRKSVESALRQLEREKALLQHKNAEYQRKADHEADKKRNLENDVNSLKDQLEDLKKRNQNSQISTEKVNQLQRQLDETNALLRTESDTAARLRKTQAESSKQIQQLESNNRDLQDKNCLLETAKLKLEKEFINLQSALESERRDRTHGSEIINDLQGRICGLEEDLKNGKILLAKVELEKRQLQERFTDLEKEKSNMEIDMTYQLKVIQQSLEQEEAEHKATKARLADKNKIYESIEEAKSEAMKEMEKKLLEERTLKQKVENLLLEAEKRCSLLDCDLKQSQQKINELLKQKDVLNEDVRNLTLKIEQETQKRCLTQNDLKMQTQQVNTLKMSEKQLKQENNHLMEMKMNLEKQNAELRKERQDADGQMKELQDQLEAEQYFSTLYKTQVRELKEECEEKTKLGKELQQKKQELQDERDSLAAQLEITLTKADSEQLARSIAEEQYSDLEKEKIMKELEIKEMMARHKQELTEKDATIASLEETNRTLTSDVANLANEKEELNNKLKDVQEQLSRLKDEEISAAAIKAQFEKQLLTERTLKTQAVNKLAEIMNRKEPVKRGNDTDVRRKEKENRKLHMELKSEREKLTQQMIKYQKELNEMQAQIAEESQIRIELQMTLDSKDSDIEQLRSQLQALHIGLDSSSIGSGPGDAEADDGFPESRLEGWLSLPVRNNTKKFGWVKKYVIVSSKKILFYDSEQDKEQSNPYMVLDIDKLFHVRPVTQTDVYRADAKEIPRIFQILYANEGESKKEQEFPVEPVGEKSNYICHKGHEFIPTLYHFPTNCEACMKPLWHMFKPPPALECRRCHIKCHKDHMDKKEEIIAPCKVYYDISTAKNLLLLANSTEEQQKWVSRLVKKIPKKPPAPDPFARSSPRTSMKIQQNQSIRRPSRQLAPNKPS

IC50 | Compound
< 2 nM | COc1cccc(CN2C(=O)N(c3ccc(-c4cn[nH]c4)cc3)CC2CO)c1 (racemic) [Example 37, 1-(4-(1H-Pyrazol-4-yl)phenyl)-4-(hydroxymethyl)-3-(3-methoxybenzyl)imidazolidin-2-one]
< 2 nM | COc1cccc(CN2C(=O)N(c3ccc(-c4cn[nH]c4)cc3)CC2C(C)(C)O)c1 (single isomer, unassigned) [Example 123, 1-(4-(1H-Pyrazol-4-yl)phenyl)-4-(2-hydroxypropan-2-yl)-3-(3-methoxybenzyl)imidazolidin-2-one]
2.1 to 20 nM | COc1cc(CN2C(=O)N(c3ccc(-c4cn[nH]c4)cc3)C[C@H]2CO)ccc1F (single isomer, unassigned) [Example 131]
2.1 to 20 nM | COc1cccc(C(C)N2C(=O)N(c3ccc(-c4cn[nH]c4)cc3)C[C@@H]2CO)c1 (single isomer, unassigned) [Example 132]
20.1 to 200 nM | COc1cccc(C(C)N2C(=O)N(c3ccc(-c4cn[nH]c4)cc3)C[C@@H]2CO)c1 (single isomer, unassigned) [Example 133]
200 to 2000 nM | COc1cccc(CN2C(=O)N(c3ccc(-c4cn[nH]c4)c(OC)c3)CC2CO)c1 (single isomer, unassigned) [Example 135, 4-(hydroxy-methyl)-1-(3-methoxy-4-(1H-pyrazol-4-yl)phenyl)-3-(3-methoxy-benzyl) imidazolidin-2-one]
2.1 to 20 nM | COc1cccc(C(C)N2C(=O)N(c3ccc(-c4cn[nH]c4)cc3)CC2(C)C)c1 (single isomer, unassigned) [Example 145, 1-(4-(1H-pyrazol-4-yl)phenyl)-3-(1-(3-methoxy-phenyl)-ethyl)-4,4-dimethyl-imidazolidin-2-one]
20.1 to 200 nM | COc1cccc(C(C)N2C(=O)N(c3ccc(-c4cn[nH]c4)cc3)CC2(C)C)c1 (single isomer, unassigned) [Example 146, 1-(4-(1H-pyrazol-4-yl)phenyl)-3-(1-(3-methoxy-phenyl)-ethyl)-4,4-dimethyl-imidazolidin-2-one]
< 2 nM | COc1cccc(C(CO)N2CCN(c3ccc(-c4cn[nH]c4)cc3)C2=O)c1 (single isomer, unassigned) [Example 155, 1-(4-(1H-Pyrazol-4-yl)phenyl)-3-(2-hydroxy-1-(3-methoxyphenyl)ethyl)imidazolidin-2-one]
200 to 2000 nM | COCC(c1cccc(OC)c1)N1CCN(c2ccc(-c3cn[nH]c3)cc2)C1=O (single isomer, unassigned) [Example 157, 1-(4-(1H-Pyrazol-4-yl)phenyl)-3-(2-methoxy-1-(3-methoxyphenyl)ethyl)imidazolidin-2-one]
2.1 to 20 nM | COc1cccc(C(CO)N2CCN(c3ccc(-c4cn[nH]c4)c(C)n3)C2=O)c1 (single isomer, unassigned) [Example 161, 1-(2-hydroxy-1-(3-methoxy-phenyl)ethyl)-3-(6-methyl-5-(1H-pyrazol-4-yl)pyridin-2-yl)imidazolidin-2-one]
2.1 to 20 nM | O=C1N(c2ccc(-c3cn[nH]c3)cc2)CCN1C(CO)c1ccccc1 (single isomer, unassigned) [Example 163, 1-(4-(1H-pyrazol-4-yl)phenyl)-3-(2-hydroxy-1-phenylethyl) imidazolidin-2-one]
200 to 2000 nM | COc1cccc(C(CO)N2CCN(c3ccc(-c4cn[nH]c4)c(C)c3)C2=O)c1 (single isomer, unassigned) [Example 164, 1-(2-hydroxy-1-(3-methoxy-phenyl)ethyl)-3-(3-methyl-4-(1H-pyrazol-4-yl)phenyl) imidazolidin-2-one]
2.1 to 20 nM | COc1cccc(C(CO)N2CCN(c3ccc(-c4cn[nH]c4)c(C)c3)C2=O)c1 (single isomer, unassigned) [Example 165, 1-(2-hydroxy-1-(3-methoxy-phenyl)ethyl)-3-(3-methyl-4-(1H-pyrazol-4-yl)phenyl) imidazolidin-2-one]

Further lines, the compound ahead of its results:

Compound | IC50
COc1cccc(CN2C(=O)N(c3ccc(-c4cn[nH]c4)cc3)CC2C(C)(C)O)c1 (single isomer, unassigned) [Example 124, 1-(4-(1H-Pyrazol-4-yl)phenyl)-4-(2-hydroxypropan-2-yl)-3-(3-methoxybenzyl)imidazolidin-2-one] | < 2 nM
COc1cccc(CN2CC(CO)N(c3ccc(-c4cn[nH]c4)cc3)C2=O)c1 (single isomer, unassigned) [Example 126, 3-(4-(1H-Pyrazol-4-yl)phenyl)-4-(hydroxymethyl)-1-(3-methoxybenzyl)imidazolidin-2-one] | 20.1 to 200 nM
COc1cccc(CN2CC(CO)N(c3ccc(-c4cn[nH]c4)cc3)C2=O)c1 (single isomer, unassigned) [Example 127, 3-(4-(1H-Pyrazol-4-yl)phenyl)-4-(hydroxymethyl)-1-(3-methoxybenzyl)imidazolidin-2-one] | < 2 nM
COc1cc(CN2C(=O)N(c3ccc(-c4cn[nH]c4)cc3)C[C@@H]2CO)ccc1F (single isomer, unassigned) [Example 130] | 2.1 to 20 nM
COc1cccc(CN2C(=O)N(c3ccc(-c4cn[nH]c4)c(OC)c3)CC2CO)c1 (single isomer, unassigned) [Example 134, 4-(hydroxy-methyl)-1-(3-methoxy-4-(1H-pyrazol-4-yl)phenyl)-3-(3-methoxy-benzyl) imidazolidin-2-one] | 200 to 2000 nM
COc1cccc(C(CO)N2CCN(c3ccc(-c4cn[nH]c4)cc3)C2=O)c1 (single isomer, unassigned) [Example 154, 1-(4-(1H-Pyrazol-4-yl)phenyl)-3-(2-hydroxy-1-(3-methoxyphenyl)ethyl)imidazolidin-2-one] | 20.1 to 200 nM
COCC(c1cccc(OC)c1)N1CCN(c2ccc(-c3cn[nH]c3)cc2)C1=O (single isomer, unassigned) [Example 156, 1-(4-(1H-Pyrazol-4-yl)phenyl)-3-(2-methoxy-1-(3-methoxyphenyl)ethyl)imidazolidin-2-one] | 2.1 to 20 nM
CCc1nc(N2CCN(C(CO)c3cccc(OC)c3)C2=O)ccc1-c1cn[nH]c1 (single isomer, unassigned) [Example 158, 1-(6-ethyl-5-(1H-pyrazol-4-yl)pyridin-2-yl)-3-(2-hydroxy-1-(3-methoxy-phenyl)ethyl) imidazolidin-2-one] | 20.1 to 200 nM
CCc1nc(N2CCN(C(CO)c3cccc(OC)c3)C2=O)ccc1-c1cn[nH]c1 (single isomer, unassigned) [Example 159, 1-(6-ethyl-5-(1H-pyrazol-4-yl)pyridin-2-yl)-3-(2-hydroxy-1-(3-methoxy-phenyl)ethyl) imidazolidin-2-one] | < 2 nM
COc1cccc(C(CO)N2CCN(c3ccc(-c4cn[nH]c4)c(C)n3)C2=O)c1 (single isomer, unassigned) [Example 160, 1-(2-hydroxy-1-(3-methoxy-phenyl)ethyl)-3-(6-methyl-5-(1H-pyrazol-4-yl)pyridin-2-yl)imidazolidin-2-one] | 20.1 to 200 nM
O=C1N(c2ccc(-c3cn[nH]c3)cc2)CCN1C(CO)c1ccccc1 (single isomer, unassigned) [Example 162, 1-(4-(1H-pyrazol-4-yl)phenyl)-3-(2-hydroxy-1-phenylethyl) imidazolidin-2-one] | 200 to 2000 nM
CCc1cc(N2CCN(C(CO)c3cccc(OC)c3)C2=O)ccc1-c1cn[nH]c1 (single isomer, unassigned) [Example 166, 1-(3-ethyl-4-(1H-pyrazol-4-yl)phenyl)-3-(2-hydroxy-1-(3-methoxy-phenyl)ethyl) imidazolidin-2-one] | 2.1 to 20 nM

— US10123993B2, “Cyclic ureas as inhibitors of rock” (BRISTOL-MYERS SQUIBB COMPANY, priority 2015, dated 2018)
